{"source": "patent US20230242521A1", "about": "“PHARMACEUTICAL COMPOSITION FOR PREVENTING OR TREATING PANCREATIC CANCER ASSOCIATED WITH RON MUTATION AND METHOD USING SAME” (WELLMARKER BIO CO., LTD., priority 2020, published 2023)", "key": {"cyclin D1": {"tested_on": "cyclin D1", "assay": "Immunochemical staining of tumor tissue, Mia-PaCa2 transplanted mouse model: cyclin D1", "type": "in vivo", "conditions": "10 mpk, 30 mpk, Mia-PaCa2 transplanted mice", "procedure": "(§1) FIG. 3 illustrates the results obtained by immunochemical staining of the tumor tissue for a mouse model transplanted with the Mia-PaCa2 cell line, which is a pancreatic cancer cell line of a mutation RONΔ160 type, having received Example 1 (WM-S1-030) at a dose of 10 mpk or 30 mpk and the positive control (BMS-777607) at a dose of 30 mpk.\n(§2) Example 1 (WM-S1-030) was administered at each concentration (10 mpk, 30 mpk) and positive control 1 (BMS-777607) was administered at a dose of 30 mpk to a mouse model transplanted with the Mia-PaCa2 cell line, which is a pancreatic cancer cell line of a mutation RONΔ160 type. The tumor was extracted, and the expression changes of the proteins were analyzed by immunochemical staining.\n(§3) Specifically, paraffin slides were prepared using tissues isolated from the sacrificed mice. The tissue sections were deparaffinized and rehydrated, immersed in the target recovery buffer 1× (ScyTek Laboratories, Cat #CBB999) and heated for 15 minutes to perform an antigen recovery process. After the reaction, the tissue sections were washed in Tris buffered saline-0.05% Tween 20 (TBS-T) (T&I, BTT-9310) for 5 minutes, and then the reaction was performed with a non-specific antibody response blocking reagent (vector, SP-5035) for 1 hour. […]"}, "[1]": {"tested_on": "Mia-PaCa2 pancreatic cancer cell line (mutation RONΔ160 type)", "assay": "MTS assay, cell growth inhibitory ability, Mia-PaCa2", "type": "cell-based", "conditions": "Homo sapiens; Mia-PaCa-2, RON mutation Δ160, cultured 72 hours", "procedure": "(§4) In order to compare and confirm the cell growth inhibitory ability of Examples 1 (WM-S1-030) to 5 and positive control 1 (BMS-777607) in two pancreatic cancer cell lines ofa mutation RONΔ155 type (Panc-1 and Capan-1) and one pancreatic cancer cell line of a mutation RONΔ160 type (Mia-PaCa2), MTS assay was carried out.\n(§5) For MTS assay, 1,000 cells of each pancreatic cancer cell line per well were seeded in a 96-well-plate, and 24 hours later, treated with the compounds of Examples 1 to 5 and positive control 1 at various concentrations (0.000001 μM to 10 μM) in 100 μL of 10% FBS-RPMI medium (Welgene) per each well. Thereafter, the cells were cultured for 72 hours. 20 μL of MTS solution (Promega) was added and cultured for 2 hours, and then absorbance was measured at 490 nm. The cytotoxicity was analyzed by deriving the IC50 for the compounds of Examples 1 to 5 and positive control 1 using GraphPad Prism™ 5."}, "[2]": {"tested_on": "Mia-PaCa2 (mRONΔ160) pancreatic cancer cell line transplanted tumor", "assay": "Tumor growth inhibition in Mia-PaCa2 transplanted mouse model", "type": "in vivo", "conditions": "orally once a day for 4 weeks; for Tumor growth inhibition rate (TGI, %): 30 mg/kg, BALB/c-nude mice with Mia-PaCa2 tumor; for tumor growth inhibition (in words): 30 mpk, Mia-PaCa2 transplanted mice", "source_text": "FIG. 2 illustrates the results obtained by confirming the tumor growth rate for a mouse model transplanted with the Mia-PaCa2 cell line, which is a pancreatic cancer cell line of a mutation RONΔ160 type, having received Example 1 (WM-S1-030) at a dose of 30 mpk and positive control 1 (BMS-777607) at a dose of 30 mpk. It was confirmed whether tumor growth was inhibited by administering Example 1 (WM-S1-030) at a dose of 30 mpk to a mouse model transplanted with Mia-PaCa2, which is a pancreatic cancer cell line of a mutation RONΔ160 type. Specifically, 5-week-old female BALB/c-nude mice were purchased and acclimatized for 1 week. Thereafter, Mia-PaCa2 (2×10^6 cells/mouse), a pancreatic cancer cell line of a mutation RONΔ160 type, was diluted in PBS (phosphate buffered saline) and Matrigel, and 100 μL was injected subcutaneously into the right dorsal side of the mouse. When the size of the tumor reached about 100 mm^3, the negative control (excipient) and Example 1 were orally administered. In this case, positive control 1 (BMS-777607) was administered at a dose of 30 mpk. The drug was administered once a day for 4 weeks, and the tumor size and body weight were measured twice a week. After the drug administration was completed, the mice were euthanized, the tumor was extracted, and the weight was measured."}, "[3]": {"tested_on": "Capan-1 pancreatic cancer cell line (mutation RONΔ155 type)", "assay": "MTS assay, cell growth inhibitory ability, Capan-1", "type": "cell-based", "conditions": "Homo sapiens; Capan-1, RON mutation Δ155, cultured 72 hours", "procedure": "as §4, §5"}, "pTyr-mRON": {"tested_on": "pTyr-mRON", "assay": "Immunochemical staining of tumor tissue, Mia-PaCa2 transplanted mouse model: pTyr-mRON", "type": "in vivo", "conditions": "10 mpk, 30 mpk, Mia-PaCa2 transplanted mice", "procedure": "as §1, §2, §3"}, "cleaved caspase 3": {"tested_on": "cleaved caspase 3", "assay": "Immunochemical staining of tumor tissue, Mia-PaCa2 transplanted mouse model: cleaved caspase 3", "type": "in vivo", "conditions": "10 mpk, 30 mpk, Mia-PaCa2 transplanted mice", "procedure": "as §1, §2, §3"}, "[4]": {"tested_on": "Panc-1 pancreatic cancer cell line (mutation RONΔ155 type)", "assay": "MTS assay, cell growth inhibitory ability, Panc-1", "type": "cell-based", "conditions": "Homo sapiens; Panc-1, RON mutation Δ155, cultured 72 hours", "procedure": "as §4, §5"}, "[5]": {"tested_on": "pancreatic cancer cell lines of mutation RONΔ155 type (Panc-1 and Capan-1) and RONΔ160 type (Mia-PaCa2)", "assay": "MTS assay, text summary over the three pancreatic cancer cell lines", "type": "cell-based", "conditions": "Panc-1, Capan-1, Mia-PaCa2; 0.000001 μM to 10 μM, 72 hours", "procedure": "as §4, §5"}, "[6]": {"tested_on": "pancreatic cancer cell lines of a mutation RON type (Panc-1, Capan-1, Mia-PaCa2)", "assay": "Cell killing efficacy, trypan blue exclusion assay", "type": "cell-based", "conditions": "1 μM and 5 μM, 48 hours", "procedure": "FIGS. 1A to IC illustrate the results obtained by comparing and confirming the cell killing efficacy for the Panc-1 and Capan-1 cell lines, which are pancreatic cancer cell lines of a mutation RONΔ155 type, and the Mia-PaCa2 cell line, which is a pancreatic cancer cell line of a mutation RONΔ160 type, having been treated with the compounds of Examples 1 (WM-S1-030) to 5 and positive control 1 (BMS-777607) at a concentration of 1 μM and 5 μM, respectively.\nTwo pancreatic cancer cell lines of a mutation RONΔ155 type (Panc-1 and Capan-1) and one pancreatic cancer cell line of a mutation RONΔ160 type (Mia-PaCa2) were dispensed, and 24 hours later, treated with 1 μM and 5 μM of the compounds of Examples 1 (WM-S1-030) to 5 and positive control 1 (BMS-777607), respectively, while replacing the medium. After 48 hours, the cells and the cell fluid were harvested (1,500 rpm, 4 minutes), and live cells and dead cells were quantified through trypan blue (15250-061, Gibco) exclusion assay. Statistical analysis was performed using T-test in Excel."}}, "note": "Counter-ions that a name gives are not always drawn.", "data": [{"smiles": "CCOc1ccn(-c2ccc(F)cc2)c(=O)c1C(=O)Nc1ccc(Oc2ccnc3cc(-c4ccc(CN5CCOCC5)cn4)sc23)c(F)c1.Cl", "note": "[Example 1, 4-ethoxy-N-[3-fluoro-4-({2-[5-(morpholinomethyl)pyridin-2-yl]thieno[3,2-b]pyridin-7-yl}oxy)phenyl]-1-(4-fluorophenyl)-2-oxo-1,2-dihydropyridine-3-carboxamide hydrochloride]", "values": [{"measurement": "expression of cyclin D1 (PD marker) in tumor tissue", "setting": "cyclin D1", "result": "the expression of cyclin D1, a PD marker, was decreased"}, {"measurement": "IC50", "setting": "[1]", "result": 620, "unit": "nM"}, {"measurement": "Tumor growth inhibition rate (TGI, %)", "setting": "[2]", "result": "57.2 ± 3.1", "unit": "%"}, {"measurement": "tumor growth inhibition (in words)", "setting": "[2]", "result": "tumor growth was significantly inhibited"}, {"measurement": "IC50", "setting": "[3]", "result": 630, "unit": "nM"}, {"measurement": "expression of pTyr-mRON in tumor tissue", "setting": "pTyr-mRON", "result": "the expression of pTyr-mRON was decreased"}, {"measurement": "expression of cleaved caspase 3 in tumor tissue", "setting": "cleaved caspase 3", "result": "the expression of cleaved caspase 3 was induced"}, {"measurement": "IC50", "setting": "[4]", "result": 2440, "unit": "nM"}]}, {"smiles": "CCOc1ccn(-c2ccccc2)c(=O)c1C(=O)Nc1ccc(Oc2ccnc3cc(-c4ccc(CNCCOC)cn4)sc23)c(F)c1", "note": "[Example 2, 4-ethoxy-N-(3-fluoro-4-{[2(5-{[(2-methoxyethyl)amino]methyl}pyridin-2-yl)thieno[3,2-b]pyridin-7-yl]oxy}phenyl)-2-oxo-1-phenyl-1,2-dihydropyridine-3-carboxamide hydrochloride]", "values": [{"measurement": "IC50", "setting": "[1]", "result": 1840, "unit": "nM"}, {"measurement": "IC50", "setting": "[3]", "result": 1540, "unit": "nM"}, {"measurement": "IC50", "setting": "[4]", "result": 3880, "unit": "nM"}]}, {"smiles": "CCOc1ccn(-c2ccccc2)c(=O)c1C(=O)Nc1ccc(Oc2ccnc3cc(-c4ccc(CN5CCN(C)CC5)cn4)sc23)c(F)c1", "note": "[Example 3, 4-ethoxy-N-{3-fluoro-4-[(2-(5-[(-methylpiperazin-1-yl)methyl]pyridin-2-yl)thieno[3,2-b]pyridin-7-yl)oxy]phenyl}-2-oxo-1-phenyl-1,2-dihydropyridine-3-carboxamide hydrochloride]", "values": [{"measurement": "IC50", "setting": "[1]", "result": 250, "unit": "nM"}, {"measurement": "IC50", "setting": "[3]", "result": 370, "unit": "nM"}, {"measurement": "IC50", "setting": "[4]", "result": 1090, "unit": "nM"}]}, {"smiles": "COc1cc2c(Oc3ccc(NC(=O)c4c5c(cn(-c6ccc(F)cc6)c4=O)CCO5)cc3F)ccnc2cc1OCCN1CCOCC1", "note": "[Example 4, N-(3-fluoro-4-{[6-methoxy-7-(2-morpholinoethoxy)quinolin-4-yl]oxy}phenyl)-5-(4-fluorophenyl)-6-oxo-2,3,5,6-tetrahydrofuro[3,2-c]pyridine-7-carboxamide]", "values": [{"measurement": "IC50", "setting": "[1]", "result": 370, "unit": "nM"}, {"measurement": "IC50", "setting": "[3]", "result": 320, "unit": "nM"}, {"measurement": "IC50", "setting": "[4]", "result": 460, "unit": "nM"}]}, {"smiles": "COc1cc2c(Oc3ccc(NC(=O)c4c5c(cn(-c6ccc(F)cc6)c4=O)CCO5)cc3F)ccnc2cc1OCCCN1CC(C#N)C1", "note": "[Example 5, N-[4-({7-[3-(3-cyanoazetidin-1-yl)propoxy]-6-methoxyquinolin-4-yl}oxy)-3-fluorophenyl]-5-(4-fluorophenyl)-6-oxo-2,3,5,6-tetrahydrofuro[3,2-c]pyridine-7-carboxamide]", "values": [{"measurement": "IC50", "setting": "[1]", "result": 150, "unit": "nM"}, {"measurement": "IC50", "setting": "[3]", "result": 170, "unit": "nM"}, {"measurement": "IC50", "setting": "[4]", "result": 310, "unit": "nM"}]}, {"smiles": "CCOc1ccn(-c2ccc(F)cc2)c(=O)c1C(=O)Nc1ccc(Oc2ccnc(N)c2Cl)c(F)c1", "note": "[Positive control 1, N-{4-[(2-amino-3-chloro-4-pyridinyl)oxy]-3-fluorophenyl}-4-ethoxy-1-(4-fluorophenyl)-2-oxo-1,2-dihydro-3-pyridinecarboxamide, reference compound]", "values": [{"measurement": "IC50", "setting": "[1]", "result": 6060, "unit": "nM"}, {"measurement": "Tumor growth inhibition rate (TGI, %)", "setting": "[2]", "result": "4.7 ± 7.4", "unit": "%"}, {"measurement": "tumor growth inhibition (in words)", "setting": "[2]", "result": "tumor growth was inhibited relatively little"}, {"measurement": "IC50", "setting": "[3]", "result": "> 10000", "unit": "nM"}, {"measurement": "response to the drug / cell growth inhibition (MTS)", "setting": "[5]", "result": "the response to the drug was low"}, {"measurement": "cell death / response to the drug (trypan blue exclusion)", "setting": "[6]", "result": "the response to the drug was low"}, {"measurement": "IC50", "setting": "[4]", "result": "> 10000", "unit": "nM"}]}]}
